Source: publication PMC5819854 (ACS Omega, 2017)
Where two headings read alike, the source gives them in different places.

How the values were obtained:
[1] = molecular target: human μOR (Homo sapiens, UniProt P35372); assay: biochemical; assay type: binding
[2] = molecular target: human κOR (Homo sapiens, UniProt P41145); assay: biochemical; assay type: binding
[3] = molecular target: human δOR (Homo sapiens, UniProt P41143); assay: biochemical; assay type: binding
[4] = molecular target: human D3R (Homo sapiens, UniProt P35462); assay: Radioligand competition binding, human D3R
Sequence of human D3R (P35462 whole entry): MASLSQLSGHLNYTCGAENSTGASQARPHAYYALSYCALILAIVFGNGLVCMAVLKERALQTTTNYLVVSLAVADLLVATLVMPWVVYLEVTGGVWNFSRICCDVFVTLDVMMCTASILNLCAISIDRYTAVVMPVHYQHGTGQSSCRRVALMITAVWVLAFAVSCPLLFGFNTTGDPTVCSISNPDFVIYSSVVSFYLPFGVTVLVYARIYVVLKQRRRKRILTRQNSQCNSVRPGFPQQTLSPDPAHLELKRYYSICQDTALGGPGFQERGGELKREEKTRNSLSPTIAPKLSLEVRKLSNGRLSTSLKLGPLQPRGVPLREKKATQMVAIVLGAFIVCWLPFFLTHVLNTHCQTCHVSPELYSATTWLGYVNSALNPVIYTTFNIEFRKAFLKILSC

Sequence of human κOR (P41145 whole entry): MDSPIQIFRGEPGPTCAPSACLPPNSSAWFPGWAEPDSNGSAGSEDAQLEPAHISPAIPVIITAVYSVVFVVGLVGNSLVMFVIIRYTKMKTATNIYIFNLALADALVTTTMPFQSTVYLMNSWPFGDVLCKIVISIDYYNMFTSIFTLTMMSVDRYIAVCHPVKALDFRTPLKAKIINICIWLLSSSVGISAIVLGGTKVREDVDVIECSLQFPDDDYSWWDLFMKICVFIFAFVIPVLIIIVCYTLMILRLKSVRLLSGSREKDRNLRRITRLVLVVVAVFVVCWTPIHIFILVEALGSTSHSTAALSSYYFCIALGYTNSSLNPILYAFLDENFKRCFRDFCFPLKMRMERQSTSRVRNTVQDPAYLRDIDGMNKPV
Sequence of human μOR (P35372 whole entry): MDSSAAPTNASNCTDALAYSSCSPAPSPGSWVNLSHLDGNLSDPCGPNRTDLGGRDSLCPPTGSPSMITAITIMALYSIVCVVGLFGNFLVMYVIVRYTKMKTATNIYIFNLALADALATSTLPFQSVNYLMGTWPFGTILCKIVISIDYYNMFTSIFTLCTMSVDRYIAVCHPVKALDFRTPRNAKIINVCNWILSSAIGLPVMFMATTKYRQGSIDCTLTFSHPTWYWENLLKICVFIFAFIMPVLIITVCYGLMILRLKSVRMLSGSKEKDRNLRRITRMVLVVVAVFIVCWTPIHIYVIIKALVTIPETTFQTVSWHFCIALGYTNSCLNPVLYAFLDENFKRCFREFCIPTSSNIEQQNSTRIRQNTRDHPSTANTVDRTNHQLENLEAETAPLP
Sequence of human δOR (P41143 whole entry): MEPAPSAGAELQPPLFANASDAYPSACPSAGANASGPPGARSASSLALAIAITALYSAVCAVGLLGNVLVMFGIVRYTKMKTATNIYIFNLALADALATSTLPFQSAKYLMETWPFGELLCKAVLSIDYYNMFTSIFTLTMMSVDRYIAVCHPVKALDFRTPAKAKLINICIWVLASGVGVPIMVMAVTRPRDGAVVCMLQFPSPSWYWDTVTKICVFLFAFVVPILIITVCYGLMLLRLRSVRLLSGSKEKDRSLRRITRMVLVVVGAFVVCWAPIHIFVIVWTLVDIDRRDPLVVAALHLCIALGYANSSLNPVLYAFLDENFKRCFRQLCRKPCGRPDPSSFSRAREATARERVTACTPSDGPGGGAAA

Cc1cc(F)ccc1/N=N/C(=O)NCC1(N(C)C)CCCCC1 [4b, (E)-N-((1-(Dimethylamino)cyclohexyl)methyl)-2-(4-fluoro-2-methylphenyl)diazene-1-carboxamide]
Ki [1]: 4.9 ± 0.35 µM
Ki [2]: 6.1 ± 1.8 µM

(E)-N-((1-(Dimethylamino)cyclohexyl)methyl)-2-(4-fluorobiphen-2-yl)diazene-1-carboxamide [4e]
Ki ([1]; read-out: Ki μOR): 2.1 ± 0.57 µM
Ki ([2]; read-out: Ki κOR): 4.8 ± 1.3 µM

COc1cc(F)ccc1/N=N/C(=O)NCC1(N(C)C)CCCCC1 [4d, (E)-N-((1-(Dimethylamino)cyclohexyl)methyl)-2-(4-fluoro-2-methoxyphenyl)diazene-1-carboxamide]
Ki [1]: 7.4 ± 5.2 µM
selectivity between the κ and μ opioid receptor subtypes (in words) [1]: did not show any selectivity
Ki [2]: 7.2 ± 1.8 µM
Ki [3]: 38 ± 38 µM

Cc1cc(/N=N/C(=O)NCC2(N(C)C)CCCCC2)ccc1F [4c, (E)-N-((1-(Dimethylamino)cyclohexyl)methyl)-2-(4-fluoro-3-methylphenyl)diazene-1-carboxamide]
Ki [1]: 1.1 ± 0.35 µM
affinity for the μ-opioid receptor (in words) [1]: micromolar
subtype selectivity Ki(δOR/μOR) [1]: 27
subtype selectivity Ki(κOR/μOR) [1]: 4.4
Ki [2]: 4.8 ± 1.8 µM

2-(4-Fluorobiphen-2-yl)-N-(4-(4-(3-methoxyphenyl)piperazine-1-yl)but-1-yl)azocarboxamide [3e]
affinity for the D3 receptor (in words) [4]: sub-nanomolar
D3 selectivity over 5-HT1A, Ki(5-HT1A/D3) ([4]; ratio of Ki values): 43
increase of D3 affinity compared to reference compound 3a ([4]; vs ortho- and meta-unsubstituted 3a): 10 fold

CN(C)C1(CNC(=O)/N=N/c2ccc(F)cc2)CCCCC1 [4a, (E)-N-((1-(Dimethylamino)cyclohexyl)methyl)-2-(4-fluorophenyl)diazene-1-carboxamide]
Ki [1]: 2.5 ± 1.1 µM
selectivity between the κ and μ opioid receptor subtypes (in words) [1]: did not show any selectivity
Ki [2]: 3.1 ± 0.78 µM

2-(4-Fluoro-2-methoxyphenyl)-N-(4-(4-(2-methoxyphenyl)piperazine-1-yl)but-1-yl)azocarboxamide [3d]
affinity for the D3 receptor (in words) [4]: single-digit
